Publication PMC3217100 (2011)
Like-named read-outs stand apart in the source and are kept apart here.

Key:
[1] = target: T1, nicotinic α4β2 receptor (α4β2 nAChR) (Rattus norvegicus, UniProt P09483+P12390); test: radioligand competition with 3H-cytisine, rat brain homogenate; type: binding; conditions: read-out: Ki ^a; cited from earlier work
[2] = target: T1, nicotinic α4β2 receptor (α4β2 nAChR); test: as above; type: binding

In the case of `FCCCc1cncc(OC[C@@H]2CCCN2)c1` [compound 3, Nifrolidine], the Ki [1] is listed as 0.8 nM.

For `FCCCc1cncc(OC[C@@H]2CCN2)c1` [compound 4, 3-(2-(S)-azetidinylmethoxy)-5-(3′-fluoropropyl)pyridine], the Ki [2] was 0.67 nM.
